Measured values as given in US10206911B2, “Androgen receptor variants and methods for making and using” (MEMORIAL SLOAN-KETTERING CANCER CENTER, priority 2012, dated 2019).
Numbering of substitutions follows the chain as printed. Entries after “also recorded” stand apart in the source; their conditions may differ.

Columns and labels:
[1] = biological target: T1, AR F876L (Homo sapiens, UniProt P10275, DEL79-80/DUP473-473/F877L); assay: EGFP reporter assay of AR activity, LNCaP-Pb.PSE.EGFP cells, flow cytometry; type: cell-based; conditions: 10 μM, 4 days of treatment
T1 construct: expressed in transfected cells
T1 sequence (P10275 with tags, fused parts or gaps DEL79-80/DUP473-473/F877L): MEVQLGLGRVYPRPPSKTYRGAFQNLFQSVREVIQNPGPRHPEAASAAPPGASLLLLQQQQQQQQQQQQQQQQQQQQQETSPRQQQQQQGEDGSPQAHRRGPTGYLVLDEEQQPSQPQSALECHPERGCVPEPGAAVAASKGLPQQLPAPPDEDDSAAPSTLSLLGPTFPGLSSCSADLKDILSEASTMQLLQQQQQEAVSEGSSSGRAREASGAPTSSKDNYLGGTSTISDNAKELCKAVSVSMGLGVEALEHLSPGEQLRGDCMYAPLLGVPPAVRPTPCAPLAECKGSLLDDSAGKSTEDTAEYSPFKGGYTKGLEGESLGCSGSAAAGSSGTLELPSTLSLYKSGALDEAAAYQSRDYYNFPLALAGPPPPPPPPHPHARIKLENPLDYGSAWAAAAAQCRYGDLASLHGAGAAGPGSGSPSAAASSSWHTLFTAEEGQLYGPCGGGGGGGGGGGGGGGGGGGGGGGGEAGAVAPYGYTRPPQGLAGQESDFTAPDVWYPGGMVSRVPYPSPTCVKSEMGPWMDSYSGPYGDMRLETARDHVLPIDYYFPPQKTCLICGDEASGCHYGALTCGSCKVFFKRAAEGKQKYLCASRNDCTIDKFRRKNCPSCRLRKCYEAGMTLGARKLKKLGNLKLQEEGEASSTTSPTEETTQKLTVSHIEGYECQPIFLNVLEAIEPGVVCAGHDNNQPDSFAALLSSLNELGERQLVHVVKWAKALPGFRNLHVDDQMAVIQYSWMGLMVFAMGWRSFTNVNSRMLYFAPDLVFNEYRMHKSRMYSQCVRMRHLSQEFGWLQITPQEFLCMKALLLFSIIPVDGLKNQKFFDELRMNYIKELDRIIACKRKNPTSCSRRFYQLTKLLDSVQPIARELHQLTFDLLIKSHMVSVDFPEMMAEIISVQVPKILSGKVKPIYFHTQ
Text: (§1) This clone was used for all flow cytometry assays and for the FACS-based resistance screens.

[2] = biological target: T2, AR WT (Homo sapiens, UniProt P10275, DEL79-80/DUP473-473); assay: as above; type: cell-based; conditions: 10 μM, 4 days of treatment
T2 construct: expressed in transfected cells; host or cells: LNCaP-Pb.PSE.EGFP (pantropic retroviral infection, blasticidin selection)
T2 sequence (P10275 with tags, fused parts or gaps DEL79-80/DUP473-473): T1 sequence (P10275 with tags, fused parts or gaps DEL79-80/DUP473-473/F877L) with L876F
Text: as §1

[3] = test system: VCaP cells overexpressing AR WT; assay: VCaP growth assay (CellTiter-GLO); type: cell-based, human; conditions: full-serum containing media, 10 μM
[4] = test system: VCaP cells overexpressing AR F876L; assay: VCaP growth assay (CellTiter-GLO); type: cell-based, human; conditions: full-serum containing media, 10 μM
[5] = test system: CWR22PC cells expressing AR WT; assay: CWR22PC cell viability (CellTiterGLO); type: cell-based, human; conditions: full serum media; days 1, 4, and 7
Experimental: […]. […] CellTiterGLO assay was performed on days 1, 4, and 7 to measure cell viability. […] CellTiterGLO assay was performed on days 1, 4, and 7 to measure cell viability.
[…]. […] CellTiterGLO assay was performed on days 1, 4, and 7 to determine cell viability. RLU=relative light units.

[6] = test system: CWR22PC cells expressing AR F876L; assay: CWR22PC cell viability (CellTiterGLO); type: cell-based, human; conditions: full serum media; days 1, 4, and 7
Experimental: CellTiterGLO assay was performed on days 1, 4, and 7 to measure cell viability. […] CellTiterGLO assay was performed on days 1, 4, and 7 to measure cell viability.
CellTiterGLO assay was performed on days 1, 4, and 7 to determine cell viability. RLU=relative light units.

[7] = test system: DU145 (an AR null human prostate cancer cell line); assay: DU145 cell viability (CellTiterGLO); type: cell-based; conditions: 10 μM, full serum containing media
Experimental: DU145 cells were cultured in full serum containing media with 10 uM of the indicated antiandrogens. CellTiterGLO assay was performed on days 0, 3, and 6 to determine cell viability. RLU=relative light units.

[8] = test system: VCaP cells expressing AR WT and AR F876L; assay: Western blot of AR signaling and PARP cleavage in VCaP cells; type: cell-based, human; conditions: 10 μM, 4 days, media containing FBS
Experimental: Fetal bovine serum (FBS) and charcoal-stripped, dextran-treated fetal bovine serum (CSS) were purchased from Omega Scientific. […] Serial dilutions of all drugs were made using DMSO. Antibodies used for immunoblot assays were b-actin (AC-15, Sigma) PARP (#9543; Cell Signaling Technology), FKBP5 (IHC-00289, Bethyl), b-tubulin (D-10) and androgen receptor (N-20) (both from Santa Cruz Biotechnology). Protein lysates were prepared in M-PER protein extraction reagent (Pierce) or 1% SDS buffer. The chromatin immunoprecipitation assay was conducted using a kit (Upstate) with an antibody for androgen receptor (PG-21, Upstate). Nontarget and mouse AR siRNA pools were from the ON-TARGETplus collection (Dharmacon).

For CNC(=O)c1ccc(N2C(=S)N(c3ccc(C#N)c(C(F)(F)F)c3)C(=O)C23CCCC(C)(C)C3)cc1F (racemic) [(±)-DR103, 4-(3-(4-cyano-3-(trifluoromethyl)phenyl)-7,7-dimethyl-4-oxo-2-thioxo-1,3-diazaspiro[4.5]decan-1-yl)-2-fluoro-N-methylbenzamide], the “Effect on transcriptional activity of AR F876L in EGFP reporter assay (agonism or antagonism)” value [1] was “effectively antagonized; also recorded: potently inhibited”, the “Effect on transcriptional activity of AR WT in EGFP reporter assay (agonism or antagonism)” value [2] was “effectively antagonized” and the “Growth of VCaP cells, AR WT” value [3] was “inhibited the growth”. For the same compound, the “Growth of VCaP cells, AR WT” value ([3]; listed as (+)-DR103) was “effectively inhibits the growth of both models”, the “Growth of VCaP cells overexpressing AR F876L” value [4] was “inhibited the growth” and the “Growth of VCaP cells overexpressing AR F876L” value ([4]; listed as (+)-DR103) was “effectively inhibits the growth of both models”. For the same compound, the “Growth/viability of CWR22PC cells, AR WT” value [5] was “growth inhibition”, the “Growth/viability of CWR22PC cells expressing AR F876L” value [6] was “growth inhibition” and the “Proliferation of DU145 cells” value ([7]; listed as (+)-DR103) was “did not impact the proliferation”. For the same compound, the “Proliferation of DU145 cells” value ([7]; listed as DR103) was “no significant growth inhibition”, the “Endogenous AR signaling (Western blot)” value [8] was “inhibited endogenous AR signaling” and the “PARP cleavage (Western blot)” value [8] was “induced PARP cleavage”. The “Endogenous AR signaling (Western blot)” value ([8]; listed as DR103) was “efficiently inhibits AR signaling” and the “PARP cleavage (Western blot)” value ([8]; listed as DR103) was “induces PARP cleavage”.
